Test results as given in paper PMC7856885 (Advanced Science, 2020).
Entries after “also recorded” stand apart in the source; their conditions may differ. Like-named read-outs stand apart in the source and are kept apart here. Residues, ends and D or L forms follow the SMILES beside them. *: point of attachment. X1 = CC(=O)O[C@H]1C(=O)[C@@]2(C)[C@H]([C@H](OC(=O)c3ccccc3)[C@]3(O)C[C@H](OC(=O)[C@H](OC(=O)CC(=O)*)[C@@H](NC(=O)c4ccccc4)c4ccccc4)C(C)=C1C3(C)C)[C@]1(OC(C)=O)CO[C@@H]1C[C@@H]2O

Tests used:
[1] = Real‐time fluorescence imaging (Cy5) and biodistribution analysis; format: in vivo, U87MG xenograft nude mice; settings: Cy5‐labeled; for Drug distribution at the tumor site in the brain: 5.25 µmol/5 mL kg^−1
Experimental: An untreated group was administered with physiological saline as a control. Real‐time fluorescence images were captured and analyzed using the IVIS Lumina Imaging System (PerkinElmer, Waltham, MA). […] At 0.5, 2, 4, 12, 24 and 48 h after administration, 3 mice were taken from each group to capture real‐time fluorescence images of the tumor and drug distribution, and the images were analyzed by the IVIS Lumina Imaging System. The excitation and emission quantitative wavelengths used were 640 nm and 700 nm, respectively. At the end of each experiment, animals were euthanized and their brains, lungs, hearts, livers, and kidneys were harvested and further tested by the IVIS Lumina imaging system to determine the drug distribution in tissue from each organ.

[2] = Cerebral distribution: free PTX in tumor and tumor‐free brain tissue by HPLC/MS; format: in vivo, nude mice with orthotopic U87MG transplantation
Experimental: PTX levels in the mouse brains were measured by the HPLC/MS method. […] Tumor‐free brain tissue as well as the tumor were isolated and weighed separately. The tissue was placed on a 35 mm dish and washed with PBS on ice. The tissue was then cut into small pieces with a surgical scissor and transferred into a 1.5 mL centrifuge tube. Appropriate amounts of 50% methanol were added into the tube to prepare the tissue suspension (0.2 g mL^−1). The tissue suspensions were thoroughly homogenized by an ultrasonic cell disrupter. Thereafter, the tissue homogenates were centrifuged at 10 000 × g for 30 min. The precipitate was removed, and the supernatant was collected for further content analysis by HPLC/MS. […] The drug response values were obtained and analyzed.

[3] = target: T1, recombinant human MMP‐2 protein (Homo sapiens, UniProt P08253); assay: Release study: cleavage by MMP‐2, HPLC/MS; format: in vitro ADME
T1 construct: purchased PeproTech (Rocky Hill, NJ, USA)
T1 sequence (P08253 110-660): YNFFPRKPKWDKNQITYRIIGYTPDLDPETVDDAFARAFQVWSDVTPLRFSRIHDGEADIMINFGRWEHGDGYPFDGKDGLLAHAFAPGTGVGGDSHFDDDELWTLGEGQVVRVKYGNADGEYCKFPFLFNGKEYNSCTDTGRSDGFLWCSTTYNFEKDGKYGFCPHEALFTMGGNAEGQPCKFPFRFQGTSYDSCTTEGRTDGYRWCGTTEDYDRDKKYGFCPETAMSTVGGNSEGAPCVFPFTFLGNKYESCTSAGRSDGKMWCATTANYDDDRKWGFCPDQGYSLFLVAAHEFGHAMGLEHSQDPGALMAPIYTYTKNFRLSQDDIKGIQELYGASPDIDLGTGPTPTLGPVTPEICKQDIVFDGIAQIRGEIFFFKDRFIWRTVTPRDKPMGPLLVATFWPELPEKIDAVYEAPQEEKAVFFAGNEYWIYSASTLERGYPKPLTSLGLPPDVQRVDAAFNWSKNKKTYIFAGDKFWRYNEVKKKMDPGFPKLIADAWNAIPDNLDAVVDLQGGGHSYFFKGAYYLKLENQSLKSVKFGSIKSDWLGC
Experimental: The recombinant human MMP‐2 protein with 62.0 kDa molecular weight was purchased from PeproTech (Rocky Hill, NJ, USA). To observe the ability of cleavage in vitro, MMP‐2 was incubated with 4‐aminophenylmercuric acetate (7 × 10^−3 M) at 37 °C for 1 h. […] The reacting solution (50 µL) was then collected and analyzed through HPLC/MS. The spectra data were collected at 220 nm using gradient solvent conditions. BEH C18, 1.7 × 10^−6 м, 100 × 2.1 mm column was used. The chromatographic conditions used for the analyses were: solvent A – 0.1% formic acid in water; solvent B – 0.1% formic acid in acetonitrile: 0–15 min: 2% MeCN, 15–18 min: 100% MeCN, 18–20 min: 2% MeCN, with a flow rate of 0.3 mL min^−1.

[4] = Solubility in PBS at 3 mg mL^−1 (appearance of the solution); format: physicochemical
U251+MMP‐2 siRNA = assay: MTS cell proliferation assay; format: cell-based; settings: Homo sapiens
Experimental: (§1) The human GBM cell lines (U87MG and U251) were respectively obtained from the American Type Culture Collection (ATCC, Manassas, VA) and the China Academic Sinica Cell Repository (Shanghai, China) and cultured in accordance with the protocol of the supplier. In brief, all the cell lines were maintained in Dulbecco's Modified Eagle Medium (DMEM; Gibco, Grand Island, NY) supplemented with 10% fetal bovine serum (FBS; Biological Industries, Kibbutz Beit Haemek, Israel). Cells were incubated in a humidified incubator at 37 °C under 5% CO2 atmosphere.
(§2) Homo‐MMP‐2 siRNA and nonsilencing siRNA were designed and synthesized by GenePharma (Suzhou, China). The transfection of siRNA was performed using the X‐tremeGENE siRNA transfection reagent (Roche, Mannheim, Germany) in accordance with the manufacturer's instructions. Before transfection, all the cell lines were inoculated at a density of 5 × 10^5 cells per well in a 6‐well plate. After incubation overnight, the cells were washed with fresh DMEM medium without FBS. At the same time, the reagent of transfection was mixed with homo‐MMP‐2 siRNA or nonsilencing siRNA (50 × 10^−9 м) for 15 min at a room temperature. The solution of the transfection complex was then added into the cell for 24 h. As a negative control group, a nonsilencing siRNA was transfected in the cell line in order to eliminate the influence of the transfection reagent.
(§3) The cells treated with PBS and 100 × 10^−6 м SynB3‐PVGLIG were used as the control and the dual‐functional peptide control, respectively. After treatment, the cells were washed with PBS three times and subsequently incubated with 20 µL Cell Titer 96AQeuous One Solution Reagent (Promega, Madison, WI, USA) for 2 h at 37 °C. The absorbance was measured on a Synergy microplate reader (BioTek Instruments, Winooski, VT) at 490 nm. All the data were obtained from three independent experiments performed in three wells. The absorbance of cells in the control group was taken as 100% viability, and the inhibition rate of cell viability was counted by using the following equation: % Inhibition rate = (Absorbancecontrol − Absorbancetest)/(Absorbancecontrol − Absorbanceblank) × 100.

U87MG+MMP‐2 siRNA = assay: MTS cell proliferation assay; format: cell-based; settings: Homo sapiens
Experimental: as §1, §2, §3

U251 = assay: MTS cell proliferation assay; format: cell-based; settings: Homo sapiens
Experimental: as §1, §3

U87MG = assay: MTS cell proliferation assay; format: cell-based; settings: Homo sapiens, U-87 MG, linear regression
Experimental: as §1, §3

MMP‐2 = assay: recombinant human MMP‐2 protein (5 ng µL^−1), activated with 4‐aminophenylmercuric acetate; settings: 37 °C, up to 3 h
[5] = tumor‐free (normal) brain tissue of nude mice with orthotopic U87MG transplantation after i.v. injection; settings: BALB/C athymic nude mice, up to 12 h
[6] = tumor tissue from brains of nude mice with orthotopic U87MG transplantation after i.v. injection; settings: BALB/C athymic nude mice, up to 12 h
[7] = 5.25 µmol/5 mL kg^−1, tail vein

Compound | Drug distribution at the tumor site in the brain [1] | Tissues in which the fluorescence signal (Cy5) was mainly detected [1, 7] | IC50 (U251+MMP‐2 siRNA; 4 h) | IC50 (U251+MMP‐2 siRNA; 24 h) | IC50 (U251+MMP‐2 siRNA; 48 h) | IC50 (U87MG+MMP‐2 siRNA; 4 h) | IC50 (U87MG+MMP‐2 siRNA; 24 h) | IC50 (U87MG+MMP‐2 siRNA; 48 h) | IC50 (U251; U-251, U251, 4 h) | IC50 (U251; U-251, U251, 24 h) | IC50 (U251; U-251, U251, 48 h) | IC50 (U87MG; 4 h) | IC50 (U87MG; 24 h) | IC50 (U87MG; 48 h) | further results
CC[C@H](C)[C@H](NC(=O)[C@H](CC(C)C)NC(=O)CNC(=O)[C@@H](NC(=O)[C@@H]1CCCN1C(=O)CC(=O)O[C@@H](C(=O)O[C@H]1C[C@@]2(O)[C@@H](OC(=O)c3ccccc3)[C@@H]3[C@]4(OC(C)=O)CO[C@@H]4C[C@H](O)[C@@]3(C)C(=O)[C@H](OC(C)=O)C(=C1C)C2(C)C)[C@@H](NC(=O)c1ccccc1)c1ccccc1)C(C)C)C(=O)NCC(=O)N[C@@H](CCCNC(=N)N)C(=O)N[C@@H](CCCNC(=N)N)C(=O)N[C@@H](CC(C)C)C(=O)N[C@@H](CO)C(=O)N[C@@H](Cc1ccc(O)cc1)C(=O)N[C@@H](CO)C(=O)N[C@@H](CCCNC(=N)N)C(=O)N[C@@H](CCCNC(=N)N)C(=O)N[C@@H](CCCNC(=N)N)C(=O)N[C@@H](Cc1ccccc1)C(=O)O [SynB3‐PVGLIG‐PTX, PTX‐2′OH‐malonyl‐PVGLIG‐SynB3] (X1-PVGLIGRRLSYSRRRF-OH) | mainly distributed in the transplanted gliomas | bladder, liver, kidneys, lungs, and brain |  |  |  |  |  |  |  |  |  |  |  |  | Fluorescent signal at 48 h ([1]; 5.25 µmol/5 mL kg^−1, 48 h): could still be detected in brain; Time at which the fluorescent signal in the brain tumor peaked ([1]; 5.25 µmol/5 mL kg^−1, tail vein, imaged 0.5–48 h): 12 h; mean diameter of nanocomplex: 162 nm; PTX concentration in tumor, times that of the normal brain ([2]; 2 h after single dose 5.25 µmol/5 mL kg^−1 i.v.): 20 times; Concentration of PTX in the tumor tissue, finally reached ([2]; last time point (sampling 2, 4, 12 h), single dose 5.25 µmol/5 mL kg^−1 i.v., HPLC/MS, n = 5): 456.32 µg G^−1; Cleavage without MMP‐2 ([3]; 2.5 mg mL^−1, no MMP‐2, HPLC/MS, neither PVG‐PTX nor free PTX detected): could not be cleaved; Percentage of conjugate cleaved by MMP‐2 ([3]; 2.5 mg mL^−1 conjugate, activated MMP‐2 5 ng µL^−1, 0.5 h, HPLC/MS): about 41.18%
Cn1nnc2c(C(N)=O)ncn2c1=O [TMZ, Temozolomide] |  |  | 3300 µM | 869 µM | 131 µM | 471 µM | 414 µM | 280 µM | 3070 µM | 660 µM | 213 µM | 392 µM | 382 µM | 514 µM | Solubility in PBS (appearance) ([4]; 3 mg mL^−1 in PBS, visual): nearly insoluble
PVGLIG-RRLSYSRRRF |  |  |  |  |  |  |  |  |  |  |  |  |  |  | fragment found (MMP‐2): PVG‐PTX, 0.5 h; also recorded: SynB3-LIG; fragment found [5]: free PTX, 2 h; fragment found [6]: free PTX, 2 h
CC(=O)O[C@H]1C(=O)[C@@]2(C)[C@H]([C@H](OC(=O)c3ccccc3)[C@]3(O)C[C@H](OC(=O)[C@H](O)[C@@H](NC(=O)c4ccccc4)c4ccccc4)C(C)=C1C3(C)C)[C@]1(OC(C)=O)CO[C@@H]1C[C@@H]2O [PTX, Paclitaxel] | no drug distribution was detected | lungs, liver, and kidneys | 136 µM | 31.5 µM | 23.6 µM | 209 µM | 37.3 µM | 28.5 µM | 181 µM | 47.1 µM | 27.4 µM | 148 µM | 46.3 µM | 31.3 µM | Solubility in PBS (appearance) [4]: nearly insoluble
